We go through 24 compounds from patent US20260027131A1, “PRODRUGS, PRODRUG COMPOSITIONS AND RELATED METHODS” (Praesidia Biotherapeutics Inc., priority 2022, published 2026).

Values joined by “and” are separate entries in the source; they are usually repeats but may differ in a detail not shown here. Equal values may be shown once. A value given as a limit tells only on which side of the number the result lay.

The nature of one series: in vitro. Conditions: human, plasma.
The target in series [1] is T1, Glucocorticoid receptor (GR) (Homo sapiens, UniProt P04150).
T1 sequence (P04150 1-777): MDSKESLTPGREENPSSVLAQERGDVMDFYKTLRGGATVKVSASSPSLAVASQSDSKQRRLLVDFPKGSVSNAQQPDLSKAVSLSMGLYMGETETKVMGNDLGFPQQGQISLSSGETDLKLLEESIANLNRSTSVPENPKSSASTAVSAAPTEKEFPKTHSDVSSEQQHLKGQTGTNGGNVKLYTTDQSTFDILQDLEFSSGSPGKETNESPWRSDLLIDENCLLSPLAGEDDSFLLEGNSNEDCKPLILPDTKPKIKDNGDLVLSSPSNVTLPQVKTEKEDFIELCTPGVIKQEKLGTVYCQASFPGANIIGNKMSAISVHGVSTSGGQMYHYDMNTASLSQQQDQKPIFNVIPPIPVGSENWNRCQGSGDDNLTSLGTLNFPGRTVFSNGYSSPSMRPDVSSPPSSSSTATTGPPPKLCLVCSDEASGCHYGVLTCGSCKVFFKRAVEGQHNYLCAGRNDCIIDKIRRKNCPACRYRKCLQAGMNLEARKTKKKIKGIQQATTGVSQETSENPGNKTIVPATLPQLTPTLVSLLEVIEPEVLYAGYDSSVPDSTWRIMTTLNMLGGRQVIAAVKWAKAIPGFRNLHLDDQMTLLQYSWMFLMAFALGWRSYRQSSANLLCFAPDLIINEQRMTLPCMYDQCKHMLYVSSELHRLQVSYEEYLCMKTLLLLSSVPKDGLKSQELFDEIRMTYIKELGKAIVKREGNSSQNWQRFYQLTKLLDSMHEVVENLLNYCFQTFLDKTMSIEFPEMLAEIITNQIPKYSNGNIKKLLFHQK
The series can be described thus: TR-FRET GR competitive binding assay. Conditions: 0.1 μM. Here is the method: Glucocorticoid receptor (GR) binding of prodrugs was determined using TR-FRET GR competitive binding assay. Three-point (0.1, 1 and 10 μM) binding was evaluated for each prodrug.

A further series addresses DPP4 (Homo sapiens, UniProt P27487). The experiment in a line: in vitro. Conditions: recombinant enzyme.
A further series can be described thus: Rat plasma stability. Type of series: in vitro ADME. Conditions: rat; for half-life at 5 μM: plasma. Here is the method:
Rat and human plasma were obtained from qualified vendors. […] The assay was performed in duplicate.

Series [2] in a line: Metabolic stability in rat liver microsomes. The format is in vitro ADME. Conditions: rat, microsomes, 1 μM. Here is the method: Rat liver microsomes were obtained from qualified vendors and metabolic stability of the test compound was determined at 1 μM. The compound was incubated at 37° C. with 0.5 mg microsome/mL in the buffer in the presence of 1 mM NADPH. Aliquots of 50 μL were taken from the reaction solution at 0, 15, 30, 45 and 60 minutes. […] All samples were analyzed in duplicates.
Background: Liver microsomes are a subcellular fraction often used to study metabolism.

A short description of series [3]: Pharmacokinetic studies in rats: plasma and lung. Conditions: rat, in vivo, iv. On the procedure:
Six to eight weeks old Sprague-Dawley rats were procured from a qualified provider. Test compounds were introduced in rats by a single intravenous administration. […] Blood samples (0.1, 0.2 or 0.5 mL) were collected with a 1 mL syringe containing anticoagulants K2EDTA. Blood samples were centrifuged to obtain plasma for analysis. […] After collection at each time point, lung samples were frozen at −75° C. Prior to analysis, a portion of lung sample was weighed and homogenized with phosphate buffer saline. […] Data analysis and pharmacokinetic parameters were generated using WinNonlin software.

Series [4] in a line: Chemical stability at pH 4.5 and pH 7.4 in PBS. The format is physicochemical. Conditions: for Chemical Stability, pH 4.5: PBS pH 4.5, 37° C.; for Chemical Stability, pH 4.5 / Chemical Stability, pH 7.4: 5 μM, up to 240 min; for Chemical Stability, pH 7.4: PBS pH 7.4, 37° C. Here is the method: The assay was performed in duplicate. […] Samples were incubated at 37° C. at 600 rpm.

The mark [5] stands for this setting: read-out: Rat Plasma Stability t½.

DPP4, sequence (P27487 whole entry, species assumed): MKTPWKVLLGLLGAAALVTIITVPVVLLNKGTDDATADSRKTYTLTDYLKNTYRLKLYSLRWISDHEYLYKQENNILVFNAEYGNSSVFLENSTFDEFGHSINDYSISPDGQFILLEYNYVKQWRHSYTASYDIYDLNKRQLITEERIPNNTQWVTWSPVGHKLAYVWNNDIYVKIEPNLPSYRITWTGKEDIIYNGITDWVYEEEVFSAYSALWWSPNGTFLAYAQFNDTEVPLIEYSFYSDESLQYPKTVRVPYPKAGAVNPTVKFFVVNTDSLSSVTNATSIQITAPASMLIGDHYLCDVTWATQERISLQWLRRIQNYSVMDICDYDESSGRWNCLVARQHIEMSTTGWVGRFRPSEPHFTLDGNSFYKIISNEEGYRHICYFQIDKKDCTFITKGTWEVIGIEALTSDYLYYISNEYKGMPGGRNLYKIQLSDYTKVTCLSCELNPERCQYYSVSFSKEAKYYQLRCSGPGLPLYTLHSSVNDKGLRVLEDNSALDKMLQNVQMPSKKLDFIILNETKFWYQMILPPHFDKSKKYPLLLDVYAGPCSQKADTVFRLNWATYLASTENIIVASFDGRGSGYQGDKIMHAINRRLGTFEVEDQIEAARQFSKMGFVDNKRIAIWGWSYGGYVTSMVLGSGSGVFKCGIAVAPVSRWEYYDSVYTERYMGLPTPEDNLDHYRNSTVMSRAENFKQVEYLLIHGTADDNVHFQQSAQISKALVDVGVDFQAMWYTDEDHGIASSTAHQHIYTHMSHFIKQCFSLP
Description for Caco-2 cell monolayers: CaCO-2 cells were cultured, and a monolayer was developed in-house in 96 well-plates over 18 days using standard protocol. The monolayer was tested for the integrity of the cell monolayer before using.
Test compounds were added to the transwell insert (apical compartment) to determine the rate of drug transport in the apical to basolateral direction. To determine the rate of drug transport in the basolateral to apical direction, the test compound was added to the receiver plate wells (basolateral compartment). Appropriate amount of HBSS (10 mM HEPES, pH 7.4) was added in both compartments for a final volume of 200 μL. The plates were incubated at 37° C. with shaking at 150 rpm on a rotary shaker for 2 hours. At the end of the transport period, 50 μL from the apical and basolateral wells were collected and 4 volume of cold acetonitrile containing internal standards (IS: 100 nM alprazolam, 200 nM labetalol, and 2 μM ketoprofen) was added to each sample to terminate the reaction. The samples were vortexed and centrifuged at 3,800 g for 20 minutes. An aliquot of 150 μL of the supernatant was used for LC/MS/MS analysis. All samples were analyzed in duplicates. Samples were analyzed through LC/MS/MS for estimating the permeability and efflux of the compounds across Caco-2 cell monolayers.
Description for DPP4: Aliquots were withdrawn at 0, 60 and 120 minutes from the reaction mixture and quenched with 20-volumes of cold acetonitrile. […] Glycine-proline p-nitroanilide was used as a positive control for this assay.
Description for Human plasma stability: Rat and human plasma were obtained from qualified vendors. 5 μL of 500 μM of the test article solution was added to 495 μL of pre-incubated human or rat plasma to reach a final concentration of 5 μM. The final concentration of organic solvents was not more than 0.5%. The assay was performed in duplicate. The reaction samples were incubated in a 37° C. water bath with shaking at approximately 60 rpm. 50 μL of the reaction samples were collected at 0, 30, 60, 120 and 180 minutes. The reaction was stopped by adding 300 μL of room temperature quench solution (acetonitrile containing internal standards (IS, 200 nM labetalol, 100 nM alprazolam and 2 μM ketoprofen)). The samples were vortexed for 5 minutes followed by centrifugation of the samples at 3,220 g for 30 minutes at room temperature to precipitate the protein. 100 μL of the supernatant was transferred to a new plate and diluted with 100 μL or 200 μL water according to the LC/MS signal response and peak shape. The samples were mixed well and analyzed using LC/MS/MS. The remaining percentage of parent drug versus reaction time was used to calculate the t1/2 value.

Consider `CC(C)C(N)C(=O)OCC(=O)[C@@]1(O)[C@H](C)C[C@H]2[C@@H]3CCC4=CC(=O)C=C[C@]4(C)[C@@]3(F)[C@@H](O)C[C@@]21C` (some centres unmarked) [Comparative Compound 1, reference compound], for which, in the series “in vitro”, the half-life at 5 μM turned out to be 2.88 h.

As for `C[C@@H]1C[C@H]2[C@@H]3CCC4=CC(=O)C=C[C@]4(C)[C@@]3(F)[C@@H](O)C[C@]2(C)[C@@]1(O)C(=O)CO` [Dexamethasone, reference compound], in [1], the “GR Binding Data” value is reported as 85%.

For the compound `CNC(C(=O)N1CCCC1C(=O)NCC(C)(C)C(C)C(=O)OCC(=O)[C@@]1(O)[C@H](C)C[C@H]2[C@@H]3CCC4=CC(=O)C=C[C@]4(C)[C@@]3(F)[C@@H](O)C[C@@]21C)C(C)C` (some centres unmarked) [Compound 32], the half-life at 10 μM at DPP4 is 3.57 h.

`CC(C)C(N)C(=O)N1CCCC1C(=O)NCC(C)(C)C(C)C(=O)OCC(=O)[C@@]1(O)[C@H](C)C[C@H]2[C@@H]3CCC4=CC(=O)C=C[C@]4(C)[C@@]3(F)[C@@H](O)C[C@@]21C` (some centres unmarked) [Compound 31] returned a Rat plasma stability in “Rat plasma stability” (5 μM) greater than 240. Moreover, in “Rat plasma stability”, the half-life at 5 μM is greater than 4 h. In addition, the RLM in [2] was 63. For the same compound, the half-life at 10 μM on DPP4 came out at 2.78 h. Moreover, the half-life at 5 μM in “in vitro” was greater than 4 h. Besides, the “Lung/Plasma % of Dex” value in series [3] was 74% and 100% and 78%. In series [4], the Chemical stability result is “Yes”. For the same compound, in the series with Caco-2 cell monolayers, the “Permeability A-B” value is given as “A-B = 0.065 × 10^−6, cm/s” and the “Permeability B-A” value is “B-A = 11 × 10^−6, cm/s”.

Consider `COc1cc(N(C)C)cc(NC(=O)[C@H](Cc2ccccc2)N(C)C)c1C(=O)OCC(=O)[C@@]1(O)[C@H](C)CC2[C@@H]3CCC4=CC(=O)C=C[C@]4(C)[C@@]3(F)[C@@H](O)C[C@@]21C` (some centres unmarked) [Compound 16], for which the half-life at 5 μM in “Rat plasma stability” and in the series “in vitro” was greater than 4 h each time.

For the compound `CC(C)[C@H](N)C(=O)Nc1cscc1CC(=O)OCC(=O)[C@@]1(O)[C@H](C)C[C@H]2[C@@H]3CCC4=CC(=O)C=C[C@]4(C)[C@@]3(F)[C@@H](O)C[C@@]21C.Cl` [Compound 38], the half-life at 5 μM in the series “Rat plasma stability” (setting [5]) is greater than 4 h. Moreover, in series [4], the “Chemical Stability, pH 4.5” value is listed as “Yes” and the “Chemical Stability, pH 7.4” value is “Yes”. In the series “Human plasma stability”, this compound displayed a half-life at 5 μM greater than 4 h.

Consider `CC(C)[C@H](N)C(=O)Nc1ccc(C(=O)OCC(=O)[C@@]2(O)[C@H](C)C[C@H]3[C@@H]4CCC5=CC(=O)C=C[C@]5(C)[C@@]4(F)[C@@H](O)C[C@@]32C)cc1F` [Compound 6], for which the half-life at 5 μM in “Rat plasma stability” and in the series “in vitro” was greater than 4 h in each case.

As for `CC(NNC(=O)C1CCCN1)C(C)C(=O)OCC(=O)[C@@]1(O)[C@H](C)C[C@H]2[C@@H]3CCC4=CC(=O)C=C[C@]4(C)[C@@]3(F)[C@@H](O)C[C@@]21C` (some centres unmarked) [Compound 28], the values for the half-life at 5 μM in the series “Rat plasma stability” and in the series “in vitro” were 2.45 h and greater than 4 h, respectively.

`CC(C)[C@H](N)C(=O)NCCc1cscc1C(=O)OCC(=O)[C@@]1(O)[C@H](C)C[C@H]2[C@@H]3CCC4=CC(=O)C=C[C@]4(C)[C@@]3(F)[C@@H](O)C[C@@]21C` [Compound 37]: the half-life at 5 μM in the series “Rat plasma stability” and in the series “in vitro” was greater than 4 h throughout.

Consider `C[C@@H]1C[C@H]2[C@@H]3CCC4=CC(=O)C=C[C@]4(C)[C@@]3(F)[C@@H](O)C[C@]2(C)[C@@]1(O)C(=O)COC(=O)NCc1ccccc1NC(=O)[C@@H](N)Cc1ccccc1.Cl` [Compound 23], for which the half-life at 5 μM in the series “Rat plasma stability” (setting [5]) and in the series “Human plasma stability” was greater than 4 h each time.

With `CC(C)[C@H](N)C(=O)Nc1ccc([C@H](C)NC(=O)OCC(=O)[C@@]2(O)[C@H](C)C[C@H]3[C@@H]4CCC5=CC(=O)C=C[C@]5(C)[C@@]4(F)[C@@H](O)C[C@@]32C)cc1` [Compound 24], the half-life at 5 μM in the series “Rat plasma stability” and in the series “in vitro” was greater than 4 h in each case.

Consider `CC(C)[C@H](NC(=O)[C@@H]1CCCN1C(=O)CN)C(=O)Nc1ccc(C(=O)OCC(=O)[C@@]2(O)[C@H](C)C[C@H]3[C@@H]4CCC5=CC(=O)C=C[C@]5(C)[C@@]4(F)[C@@H](O)C[C@@]32C)cc1` [Compound 3], for which the half-life at 10 μM at DPP4 was 2.53 h.

Regarding `COc1cc(NC(=O)[C@@H](N)C(C)C)c(C(=O)OCC(=O)[C@@]2(O)[C@H](C)CC3[C@@H]4CCC5=CC(=O)C=C[C@]5(C)[C@@]4(F)[C@@H](O)C[C@@]32C)c(OC(C)C)c1` (some centres unmarked) [Compound 14], the half-life at 5 μM in “Rat plasma stability” and in the series “in vitro” was greater than 4 h throughout.

On to `COc1cc(NC(=O)[C@@H](N)Cc2ccccc2)c(C(=O)OCC(=O)[C@@]2(O)[C@H](C)CC3[C@@H]4CCC5=CC(=O)C=C[C@]5(C)[C@@]4(F)[C@@H](O)C[C@@]32C)c(OC)c1` (some centres unmarked) [Compound 12], for which the half-life at 5 μM in the series “Rat plasma stability” and in the series “in vitro” was greater than 4 h throughout.

With `CC(CC(=O)OCC(=O)[C@@]1(O)[C@H](C)C[C@H]2[C@@H]3CCC4=CC(=O)C=C[C@]4(C)[C@@]3(F)[C@@H](O)C[C@@]21C)c1ccccc1NC(=O)[C@@H](N)C(C)C.Cl` (some centres unmarked) [Compound 18], in series [1], the “GR Binding Data” value stood at 46%.

For the compound `CC(C)[C@H](N)C(=O)Nc1ccc(C(=O)OCC(=O)[C@@]2(O)[C@H](C)C[C@H]3[C@@H]4CCC5=CC(=O)C=C[C@]5(C)[C@@]4(F)[C@@H](O)C[C@@]32C)cc1` [Compound 1], the half-life at 5 μM in “in vitro” was greater than 4 h.

`C[C@@H]1CC2[C@@H]3CCC4=CC(=O)C=C[C@]4(C)[C@@]3(F)[C@@H](O)C[C@]2(C)[C@@]1(O)C(=O)COC(=O)c1cccc(F)c1NC(=O)[C@@H](N)Cc1ccccc1.Cl` (some centres unmarked) [Compound 7]: in series [4], the “Chemical Stability, pH 4.5” value is on record as “Yes” and the “Chemical Stability, pH 7.4” value was “Yes”.

On to `COc1cc(NC(=O)[C@@H](N)C(C)C)c(C(=O)OCC(=O)[C@@]2(O)[C@H](C)CC3[C@@H]4CCC5=CC(=O)C=C[C@]5(C)[C@@]4(F)[C@@H](O)C[C@@]32C)c(OC)c1` (some centres unmarked) [Compound 11], for which the half-life at 5 μM in the series “Rat plasma stability” and in “in vitro” was greater than 4 h in each case.

As to `COc1cc(Br)c(C(=O)OCC(=O)[C@@]2(O)[C@H](C)CC3[C@@H]4CCC5=CC(=O)C=C[C@]5(C)[C@@]4(F)[C@@H](O)C[C@@]32C)c(NC(=O)[C@@H](N)C(C)C)c1` (some centres unmarked) [Compound 13], the half-life at 5 μM in the series “Rat plasma stability” and in the series “in vitro” was greater than 4 h each time.

Regarding `COc1cc(N(C)C)cc(NC(=O)[C@@H](N)Cc2ccccc2)c1C(=O)OCC(=O)[C@@]1(O)[C@H](C)CC2[C@@H]3CCC4=CC(=O)C=C[C@]4(C)[C@@]3(F)[C@@H](O)C[C@@]21C` (some centres unmarked) [Compound 15], the half-life at 5 μM in the series “Rat plasma stability” and in the series “in vitro” was greater than 4 h each time.

`C[C@@H]1C[C@H]2[C@@H]3CCC4=CC(=O)C=C[C@]4(C)[C@@]3(F)[C@@H](O)C[C@]2(C)[C@@]1(O)C(=O)COC(=O)[C@@H]1CCCN1` [Comparative Compound 3, reference compound]: the half-life at 5 μM in “in vitro” amounted to 0.417 h.

On to `CC(NC(=O)[C@@H](N)Cc1ccccc1)c1cscc1C(=O)OCC(=O)[C@@]1(O)[C@H](C)C[C@H]2[C@@H]3CCC4=CC(=O)C=C[C@]4(C)[C@@]3(F)[C@@H](O)C[C@@]21C` (some centres unmarked) [Compound 36], for which the half-life at 5 μM in “Rat plasma stability” and in “in vitro” was greater than 4 h in each case.

For the compound `CC(NC(C)[C@@H](N)C(C)C)c1cscc1C(=O)OCC(=O)[C@@]1(O)[C@H](C)C[C@H]2[C@@H]3CCC4=CC(=O)C=C[C@]4(C)[C@@]3(F)[C@@H](O)C[C@@]21C` (some centres unmarked) [Compound 35], the half-life at 5 μM in “Rat plasma stability” and in “in vitro” was greater than 4 h in each case.

In the case of `CC(C)C(N)C(=O)N1CCCC1C(=O)NCC1(CC(=O)OCC(=O)[C@@]2(O)[C@H](C)C[C@H]3[C@@H]4CCC5=CC(=O)C=C[C@]5(C)[C@@]4(F)[C@@H](O)C[C@@]32C)CC1` (some centres unmarked) [Compound 34], the half-life at 5 μM in “Rat plasma stability” and in “in vitro” was greater than 4 h in each case.
